Source: US20080280937A1, “Ligand Conjugates of Vinca Alkaloids, Analogs, and Derivatives” (priority 2005, published 2008)
Values joined by “and” are separate entries in the source; they are usually repeats but may differ in a detail not shown here. Equal entries are not always repeated. “Also recorded” adds a separate entry of the source. Where two headings read alike, the source gives them in different places. Marks after values point to notes of the source that are not given here. Blank lines part the entries; values can stand above or below the molecule they belong to.

What was measured:
folate receptors (FRs) = molecular target: T1, folate receptors (FRs) (Homo sapiens, UniProt P15328); experiment: Relative Affinity Assay (displacement of 3H-folic acid on FR-positive KB cells); format: binding; details: for Relative Folate Receptor Affinity: summary table; for relative binding affinity versus folic acid at folic acid receptors: figure legends, folic acid = 1.0, 1 hour at 37° C
T1 construct: FR-positive KB cells were heavily seeded into 24-well cell culture plates; endogenous in cells; host or cells: KB cells
T1 sequence (P15328 25-234): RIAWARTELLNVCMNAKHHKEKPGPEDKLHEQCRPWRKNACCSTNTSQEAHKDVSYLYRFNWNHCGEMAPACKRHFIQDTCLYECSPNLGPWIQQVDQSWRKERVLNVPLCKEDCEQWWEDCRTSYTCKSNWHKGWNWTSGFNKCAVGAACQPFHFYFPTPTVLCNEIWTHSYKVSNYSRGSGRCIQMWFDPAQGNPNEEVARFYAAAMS
Method: Relative Affinity Assay. The affinity of the compounds described herein for folate receptors (FRs) relative to folate was determined according to a previously described method (Westerhof, G. R., J. H. Schornagel, et al. (1995) Mol. Pharm. 48: 459-471) with slight modification. Briefly, FR-positive KB cells were heavily seeded into 24-well cell culture plates and allowed to adhere to the plastic for 18 h. Spent incubation media was replaced in designated wells with folate-free RPMI (FFRPMI) supplemented with 100 nM ^3H-folic acid in the absence and presence of increasing concentrations of test article or folic acid. Cells were incubated for 60 min at 37° C. and then rinsed 3 times with PBS, pH 7.4, followed by the addition of 500 μL of 1% SDS in PBS, pH 7.4. Cell lysates were then collected and added to individual vials containing 5 mL of scintillation cocktail, and then counted for radioactivity. Negative control tubes contained only the ^3H-folic acid in FFRPMI (no competitor). Positive control tubes contained a final concentration of 1 mM folic acid, and CPMs measured in these samples (representing non-specific binding of label) were subtracted from all samples.

[1] = system: folate receptor-positive KB cells; format: cell-based, human; details: for competition by excess folic acid of effect on 3H-thymidine incorporation: with versus without at least 100-fold excess of folic acid
Method: Inhibition of Cellular DNA Synthesis. The compounds described herein were evaluated using an in vitro cytotoxicity assay that predicts the ability of the drug to inhibit the growth of folate receptor-positive KB cells. The compounds were comprised of folate linked to a respective chemotherapeutic drug, as prepared according to the protocols described herein. The KB cells were exposed for predetermined periods of time at 37° C. to the indicated concentrations of folate-drug conjugate in the absence or presence of at least a 100-fold excess of folic acid. The cells were then rinsed with fresh culture medium and incubated in fresh culture medium for 72 hours at 37° C. Cell viability was assessed using a ^3H-thymidine incorporation assay.

KB tumors = format: in vivo, nu/nu mice; details: for % T/C / LCK (log of cell kill): animals not showing complete response
Method: Inhibition of Tumor Growth in Mice. The anti-tumor activity of the compounds described herein, when administered intravenously (i.v.) to tumor-bearing animals, was evaluated in nu/nu mice bearing subcutaneous KB tumors. Approximately 8 to 11 days post tumor inoculation in the subcutis of the right axilla with 1×10^6 KB cells (tumor volume range at t0=between 60 and 80 mm^3), mice (5/group) were injected i.v. three times a week (TIW), for a defined length of time (e.g., 2-3 weeks) with (a) a defined dose level on a per kilogram body weight basis of a drug delivery conjugate described herein, or (b) an equivalent dose volume of PBS (control). Tumor growth was measured using calipers at 2-day or 3-day intervals in each treatment group. Tumor volumes were calculated using the equation V=a×b^2/2, where “a” is the length of the tumor and “b” is the width expressed in millimeters.

[2] = Animal Weight Determination; details: for weight of Balb/c mice: 3 μmol/kg TIW for 3 weeks (FIG. 25B); for Weight Loss: nu/nu mice with KB tumors
Method: Animal Weight Determination. The percentage weight change of the mice was determined in mice (5 mice/group) on the indicated days post-tumor inoculation (PTI) as shown in the graph for the samples described in the related tumor volume assay.

[3] = KB cells, without excess folic acid, read-out: IC50, 3H-thymidine incorporation in KB cells

SMILES: CC[C@]1(O)C[C@H]2CN(CCc3c([nH]c4ccccc34)[C@@](C(=O)OC)(c3cc4c(cc3OC)N(C)[C@H]3[C@@](O)(C(=O)NNC(=O)OCCSSC[C@H](NC(=O)[C@H](CC(=O)O)NC(=O)[C@H](CC(=O)O)NC(=O)[C@H](CCCNC(=N)N)NC(=O)[C@H](CC(=O)O)NC(=O)CC[C@H](NC(=O)c5ccc(NCc6cnc7nc(N)[nH]c(=O)c7n6)cc5)C(=O)O)C(=O)O)[C@H](O)[C@]5(CC)C=CCN6CC[C@]43[C@@H]65)C2)C1 [Example 7]
Relative Folate Receptor Affinity (folate receptors (FRs)): 0.17
IC50 [1, 3]: 0.009 µM and ~0.016 µM
IC50 ([1]; summary table, read-out: IC50 KB Cells): < 0.1 µM

SMILES: Nc1nc2ncc(CNc3ccc(C(=O)N[C@H](CCC(=O)NC[C@H](N)C(=O)N[C@@H](CC(=O)O)C(=O)N[C@@H](CS)C(=O)O)C(=O)O)cc3)nc2c(=O)[nH]1 [EC20]
competition with Example 7 at folate receptors (KB tumors; 40 μmol/kg EC20 (rhenium complex) with 2 μmol/kg Example 7): acts as a competitor of Example 7 at folate receptors

SMILES: CC[C@]1(O)C[C@H]2CN(CCc3c([nH]c4ccccc34)[C@@](C(=O)OC)(c3cc4c(cc3OC)N(C)[C@H]3[C@@](O)(C(=O)NNC(=O)OCCSSC[C@H](NC(=O)[C@H](CC(=O)O)NC(=O)[C@H](CC(=O)O)NC(=O)[C@H](CC(=O)O)NC(=O)[C@H](CC(=O)O)NC(=O)CC[C@H](NC(=O)c5ccc(NCc6cnc7nc(N)[nH]c(=O)c7n6)cc5)C(=O)O)C(=O)O)[C@H](O)[C@]5(CC)C=CCN6CC[C@]43[C@@H]65)C2)C1 [Example 21]
relative binding affinity versus folic acid at folic acid receptors (folate receptors (FRs)): 0.16
weight of Balb/c mice [2]: little effect on the weight of the mice; also recorded: absence of an effect

SMILES: CC[C@]1(O)C[C@H]2CN(CCc3c([nH]c4ccccc34)[C@@](C(=O)OC)(c3cc4c(cc3OC)N(C)[C@H]3[C@@](O)(C(=O)NNC(=O)OCCSSC[C@H](NC(=O)[C@H](CC(=O)O)NC(=O)[C@H](CC(=O)O)NC(=O)[C@H](CCCNC(=N)N)NC(=O)[C@H](CC(=O)O)NC(=O)[C@H](CCC(=O)O)NC(=O)c5ccc(NCc6cnc7nc(N)[nH]c(=O)c7n6)cc5)C(=O)O)[C@H](O)[C@]5(CC)C=CCN6CC[C@]43[C@@H]65)C2)C1 [Example 11]
weight of nu/nu mice ([2]; 2 μmol/kg TIW for 3 weeks (FIG. 26B)): little effect on the weight of the mice; also recorded: absence of an effect

SMILES: CC[C@]1(O)C[C@H]2CN(CCc3c([nH]c4ccccc34)[C@@](C(=O)OC)(c3cc4c(cc3OC)N(C)[C@H]3[C@@](O)(C(=O)NNC(=O)OCCSSC[C@H](NC(=O)[C@H](CN)NC(=O)[C@H](CC(=O)O)NC(=O)[C@H](CC(=O)O)NC(=O)[C@H](CC(=O)O)NC(=O)CC[C@H](NC(=O)c5ccc(NCc6cnc7nc(N)[nH]c(=O)c7n6)cc5)C(=O)O)C(=O)O)[C@H](O)[C@]5(CC)C=CCN6CC[C@]43[C@@H]65)C2)C1 [Example 10]
relative binding affinity versus folic acid at folic acid receptors (folate receptors (FRs)): 0.24
IC50 [1, 3]: 0.058 µM and ~0.058 µM
competition by excess folic acid of effect on 3H-thymidine incorporation [1]: folate competes

relative binding affinity versus folic acid at folic acid receptors (folate receptors (FRs)): 1.0
SMILES: Nc1nc2ncc(CNc3ccc(C(=O)N[C@@H](CCC(=O)O)C(=O)O)cc3)nc2c(=O)[nH]1 [folic acid, reference compound]

SMILES: CC[C@]1(O)C[C@H]2CN(CCc3c([nH]c4ccccc34)[C@@](C(=O)OC)(c3cc4c(cc3OC)N(C)[C@H]3[C@@](O)(C(=O)NNC(=O)OCCSSC[C@H](NC(=O)c5ccc(NCc6cnc7nc(N)[nH]c(=O)c7n6)cc5)C(=O)O)[C@H](O)[C@]5(CC)C=CCN6CC[C@]43[C@@H]65)C2)C1 [Example 19]
relative binding affinity versus folic acid at folic acid receptors (folate receptors (FRs)): 0.046
Relative Folate Receptor Affinity (folate receptors (FRs)): 0.05
Folate Receptor Competition ([1]; summary table): Yes
competition by excess folic acid of effect on 3H-thymidine incorporation [1]: folate competes

SMILES: CC[C@]1(O)C[C@@H]2CN(CCc3c([nH]c4ccccc34)[C@@](C(=O)OC)(c3cc4c(cc3OC)N(C)[C@H]3[C@@](O)(C(=O)NN)[C@H](O)[C@]5(CC)C=CCN6CC[C@]43[C@@H]65)C2)C1 [DAVLBH, desacetylvinblastine hydrazide]
CR (animals of 5 showing a complete response) (KB tumors; 0.5 μmol/kg TIW 2 wk): 0/5
% T/C (KB tumors; 0.5 μmol/kg TIW 2 wk): 146%
LCK (log of cell kill) (KB tumors; 0.5 μmol/kg TIW 2 wk): 0.6
CR (animals of 5 showing a complete response) (KB tumors; 0.75 μmol/kg TIW 2 wk): 0/5
% T/C (KB tumors; 0.75 μmol/kg TIW 2 wk): 265%
LCK (log of cell kill) (KB tumors; 0.75 μmol/kg TIW 2 wk): 1.8
CR (animals of 5 showing a complete response) (KB tumors; 1 μmol/kg TIW 2 wk): 0/5
% T/C (KB tumors; 1 μmol/kg TIW 2 wk): 246%
LCK (log of cell kill) (KB tumors; 1 μmol/kg TIW 2 wk): 1.8
CR (animals of 5 showing a complete response) (KB tumors; 2 μmol/kg TIW 2 wk): 0/5^(d)
deaths (KB tumors; 2 μmol/kg TIW 2 wk, 5 animals): ^(d)5 deaths.
Weight Loss ([2]; 0.5 μmol/kg TIW 2 wk): 0%
Weight Loss ([2]; 0.75 μmol/kg TIW 2 wk): 0%
Weight Loss ([2]; 1 μmol/kg TIW 2 wk): >10%
Weight Loss ([2]; 2 μmol/kg TIW 2 wk): >20%

SMILES: CC[C@]1(O)C[C@H]2CN(CCc3c([nH]c4ccccc34)[C@@](C(=O)OC)(c3cc4c(cc3OC)N(C)[C@H]3[C@@](O)(C(=O)NCCOC(=O)OCCSSC[C@H](NC(=O)[C@H](CC(=O)O)NC(=O)[C@H](CCCNC(=N)N)NC(=O)[C@H](CC(=O)O)NC(=O)CC[C@H](NC(=O)c5ccc(NCc6cnc7nc(N)[nH]c(=O)c7n6)cc5)C(=O)O)C(=O)O)[C@H](O)[C@]5(CC)C=CCN6CC[C@]43[C@@H]65)C2)C1 [Example 22]
relative binding affinity versus folic acid at folic acid receptors (folate receptors (FRs)): 0.26
weight of Balb/c mice [2]: little effect on the weight of the mice; also recorded: absence of an effect

SMILES: CC[C@]1(O)C[C@H]2CN(CCc3c([nH]c4ccccc34)[C@@](C(=O)OC)(c3cc4c(cc3OC)N(C)[C@H]3[C@@](O)(C(=O)NNC(=O)OCCSSC[C@H](NC(=O)CC[C@H](NC(=O)c5ccc(NCc6cnc7nc(N)[nH]c(=O)c7n6)cc5)C(=O)O)C(=O)O)[C@H](O)[C@]5(CC)C=CCN6CC[C@]43[C@@H]65)C2)C1 [Example 18]
relative binding affinity versus folic acid at folic acid receptors (folate receptors (FRs)): 0.13
Relative Folate Receptor Affinity (folate receptors (FRs)): 0.13
Folate Receptor Competition ([1]; summary table): Yes
competition by excess folic acid of effect on 3H-thymidine incorporation [1]: folate competes
